Results on 2 molecules are retold here after patent publication US20250034151A1, “WEE1 INHIBITOR, PREPARATION THEREFOR, AND USE THEREOF” (JIANGSU TASLY DIYI PHARMACEUTICAL CO., LTD., priority 2022, published 2025).

In one series the target is T1, CYP1A2 (Homo sapiens, UniProt P05177).
T1 sequence (P05177 1-516): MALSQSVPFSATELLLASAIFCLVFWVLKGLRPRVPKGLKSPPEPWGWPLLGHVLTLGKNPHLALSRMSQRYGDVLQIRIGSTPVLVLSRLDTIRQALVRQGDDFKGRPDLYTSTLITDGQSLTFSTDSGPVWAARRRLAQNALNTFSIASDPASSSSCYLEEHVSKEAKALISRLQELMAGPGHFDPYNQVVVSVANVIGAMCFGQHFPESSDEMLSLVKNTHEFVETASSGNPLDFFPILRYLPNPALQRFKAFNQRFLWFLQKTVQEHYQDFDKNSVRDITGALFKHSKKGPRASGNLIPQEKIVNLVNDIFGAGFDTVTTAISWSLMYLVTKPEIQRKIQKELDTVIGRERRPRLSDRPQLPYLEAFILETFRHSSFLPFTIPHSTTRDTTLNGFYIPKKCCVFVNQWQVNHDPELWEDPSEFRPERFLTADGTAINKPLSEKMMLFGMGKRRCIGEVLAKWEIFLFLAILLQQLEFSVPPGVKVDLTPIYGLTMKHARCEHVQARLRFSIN
As to the kind of experiment: in vitro. Particulars: CYP1A2 enzyme, pH 7.4, probe EOMCC (0.01 mM).

The target in a further series is CYP3A4 (Homo sapiens, UniProt P08684). Put plainly: in vitro. The settings on record: CYP3A4 enzyme, pH 7.4, probe BOMCC (0.01 mM).
A further series deals with CYP2D6 (Homo sapiens, UniProt P10635). Put plainly: in vitro. The settings on record: CYP2D6 enzyme, pH 7.4, probe EOMCC (0.01 mM).
The next series deals with CYP2C9 (Homo sapiens, UniProt P11712). As to the kind of experiment: in vitro. The settings on record: CYP2C9 enzyme, pH 7.4, probe BOMCC (0.01 mM).
A further series has as its target T2, CYP2B6 (Homo sapiens, UniProt P20813).
T2 sequence (P20813 1-491): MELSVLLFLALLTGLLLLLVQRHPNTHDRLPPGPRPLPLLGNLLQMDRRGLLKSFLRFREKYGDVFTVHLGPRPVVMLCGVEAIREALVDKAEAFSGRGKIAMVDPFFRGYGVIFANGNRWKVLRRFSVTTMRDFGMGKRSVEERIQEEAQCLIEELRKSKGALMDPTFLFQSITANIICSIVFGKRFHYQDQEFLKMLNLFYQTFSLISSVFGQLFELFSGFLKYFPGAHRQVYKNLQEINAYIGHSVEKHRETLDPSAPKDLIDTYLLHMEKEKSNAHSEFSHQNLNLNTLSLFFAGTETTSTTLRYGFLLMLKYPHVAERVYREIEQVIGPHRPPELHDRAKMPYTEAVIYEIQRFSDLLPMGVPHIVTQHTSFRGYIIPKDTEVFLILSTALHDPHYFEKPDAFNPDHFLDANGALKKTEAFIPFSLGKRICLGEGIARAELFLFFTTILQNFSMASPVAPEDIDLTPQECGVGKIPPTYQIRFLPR
As to the kind of experiment: CYP450 isoform enzymatic inhibition, 2B6. The class given is in vitro ADME. The settings on record: CYP2B6 enzyme, pH 7.4, read-out: CYP inhibiton/% 2B6.

The next series addresses CYP2C19 (Homo sapiens, UniProt P33261). As to the kind of experiment: in vitro. The settings on record: CYP2C19 enzyme, pH 7.4, probe EOMCC (0.01 mM).
Series [1] is described as follows: Liver microsomes in vitro stability (human). The settings on record: read-out: T1/2/min (H). The class given is in vitro ADME. How it is done: 1. Preparation of Working Solution:
Microsomes were taken out from the −80° C. refrigerator, rapidly melted in a 37° C. water bath and placed on ice until ready to use. The test article was diluted with DMSO to prepare a 10 mM stock solution, and then diluted with acetonitrile to a 0.5 mM secondary stock solution. […] NADPH was diluted with Buffer C to a working solution of 6 mM for the starter solution. An acetonitrile solution containing an internal standard was prepared as the precipitant, and Verapamil-HCl was chosen as the internal standard at a concentration of 4 ng/ml.
2. Experimental Procedure:
A round-bottom well plate was taken, noted as the reaction plate, and the prepared working solution for each compound was dispensed into the well plate according to the number of replicates and time points (0 h samples were also added to the reaction plate), 30 μL/well; the plate was incubated at 37° C. for 10 min. A separate plate with pointed bottom wells, noted as a precipitation plate, was added with 135 μL precipitant per well; 0 h samples were transferred to the plate after 10 min incubation and 15 μL of starter solution was added; the plate was placed on ice before centrifugation.
The diluted starter solution was added in sufficient quantity to the dispensing plate to facilitate the multichannel pipette aspiration operation.
The reaction was carried out on a warm incubation shaker and 15 μL of starter solution/sample is added to the plate using a multichannel pipette. The reaction was mixed with a slight shake to initiate the reaction, which was accurately timed and recorded using a timer. In general, samples with shorter reaction times are initiated late and vice versa early, allowing sufficient time for multiple plate manipulation to terminate the reaction. For example, as for the four experiments of 5, 15, 30, and 60 min, the 60 min experiment was started first, and the 5 min experiment was started later, so as to leave sufficient time for the 5 min group.
After the reaction time had elapsed, all the solution in the plate was aspirated using the multichannel pipette and added to the precipitation plate to terminate the reaction at that point in time. After all reactions had been terminated, the plates were shaken for ten minutes on a plate shaker at 600 rpm to precipitate the protein. The plate was centrifuged at 4° C. for 15 minutes at maximum rpm. 80 μL of supernatant was taken, 320 μL of pure water was added and mixed for LC-MS analysis.

Series [2] is described as follows: Liver microsomes in vitro stability (mouse). Particulars: read-out: T1/2/min. In kind it is in vitro ADME. Background: Microsomes from liver hold many membrane-bound enzymes, among them those of drug oxidation.
The next series addresses T3, Wee1 protein (Homo sapiens, UniProt P30291).
T3 construct: purchased Thermo Fisher PR7373A
As to the kind of experiment: Binding of compound to Wee1 protein and Tracer 178 by TR-FRET (Wee1 kinase inhibitory activity). The settings on record: 15 nM WEE1, 50 nM Tracer 178, read-out: IC50 (inhibitory activity against Wee1 kinase).

CYP2C9, sequence (P11712 whole entry, species assumed): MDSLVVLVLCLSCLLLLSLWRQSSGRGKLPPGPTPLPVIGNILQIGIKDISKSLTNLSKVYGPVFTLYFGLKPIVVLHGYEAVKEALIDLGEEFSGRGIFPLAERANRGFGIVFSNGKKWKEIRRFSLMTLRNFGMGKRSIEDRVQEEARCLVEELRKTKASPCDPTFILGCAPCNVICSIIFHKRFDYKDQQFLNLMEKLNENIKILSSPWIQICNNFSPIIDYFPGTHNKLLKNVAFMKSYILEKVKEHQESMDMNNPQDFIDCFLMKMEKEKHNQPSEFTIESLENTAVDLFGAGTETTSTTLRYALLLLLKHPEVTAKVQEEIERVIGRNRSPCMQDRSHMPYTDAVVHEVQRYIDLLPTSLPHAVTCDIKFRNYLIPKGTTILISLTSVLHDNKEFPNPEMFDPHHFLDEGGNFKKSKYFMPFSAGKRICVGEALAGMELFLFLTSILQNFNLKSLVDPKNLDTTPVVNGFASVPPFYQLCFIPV
CYP3A4, sequence (P08684 whole entry, species assumed): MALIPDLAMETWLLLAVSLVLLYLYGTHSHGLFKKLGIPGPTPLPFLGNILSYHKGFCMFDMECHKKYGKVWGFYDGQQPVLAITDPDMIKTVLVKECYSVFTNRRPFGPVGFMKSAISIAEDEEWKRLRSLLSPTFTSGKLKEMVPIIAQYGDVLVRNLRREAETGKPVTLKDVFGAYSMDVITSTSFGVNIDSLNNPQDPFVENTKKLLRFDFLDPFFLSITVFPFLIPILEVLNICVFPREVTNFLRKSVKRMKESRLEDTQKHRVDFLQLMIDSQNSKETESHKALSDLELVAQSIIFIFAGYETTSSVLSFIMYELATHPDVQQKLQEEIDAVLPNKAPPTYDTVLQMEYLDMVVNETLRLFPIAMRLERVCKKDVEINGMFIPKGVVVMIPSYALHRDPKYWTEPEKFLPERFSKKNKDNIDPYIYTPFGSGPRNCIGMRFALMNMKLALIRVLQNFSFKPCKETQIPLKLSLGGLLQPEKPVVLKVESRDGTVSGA
CYP2D6, sequence (P10635 whole entry, species assumed): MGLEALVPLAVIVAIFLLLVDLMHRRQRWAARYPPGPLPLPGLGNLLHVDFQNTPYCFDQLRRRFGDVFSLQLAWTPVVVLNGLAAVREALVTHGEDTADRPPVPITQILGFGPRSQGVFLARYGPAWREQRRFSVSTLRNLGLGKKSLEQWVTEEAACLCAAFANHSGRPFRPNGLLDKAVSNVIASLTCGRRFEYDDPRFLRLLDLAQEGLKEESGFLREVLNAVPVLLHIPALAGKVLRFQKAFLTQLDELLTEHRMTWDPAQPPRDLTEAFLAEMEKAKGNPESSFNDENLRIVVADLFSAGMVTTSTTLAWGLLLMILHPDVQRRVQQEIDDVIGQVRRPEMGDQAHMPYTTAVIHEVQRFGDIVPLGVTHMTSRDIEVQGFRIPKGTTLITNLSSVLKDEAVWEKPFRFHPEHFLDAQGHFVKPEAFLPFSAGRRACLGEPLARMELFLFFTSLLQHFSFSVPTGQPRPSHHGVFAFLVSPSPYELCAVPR
CYP2C19, sequence (P33261 whole entry, species assumed): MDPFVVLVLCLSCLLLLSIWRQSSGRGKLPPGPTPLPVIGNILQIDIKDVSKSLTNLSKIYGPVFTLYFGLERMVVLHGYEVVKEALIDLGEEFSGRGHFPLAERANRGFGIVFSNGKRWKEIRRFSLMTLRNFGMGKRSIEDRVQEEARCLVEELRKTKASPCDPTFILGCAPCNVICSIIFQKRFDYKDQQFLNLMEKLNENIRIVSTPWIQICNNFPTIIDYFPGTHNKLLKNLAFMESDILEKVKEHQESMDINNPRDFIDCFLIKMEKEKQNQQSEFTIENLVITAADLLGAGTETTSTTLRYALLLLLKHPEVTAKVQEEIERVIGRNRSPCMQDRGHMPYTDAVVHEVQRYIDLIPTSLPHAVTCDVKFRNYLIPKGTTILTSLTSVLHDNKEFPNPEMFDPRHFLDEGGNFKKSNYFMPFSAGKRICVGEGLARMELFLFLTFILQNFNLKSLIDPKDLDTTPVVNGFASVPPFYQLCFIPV
T3 sequence (P30291 whole entry): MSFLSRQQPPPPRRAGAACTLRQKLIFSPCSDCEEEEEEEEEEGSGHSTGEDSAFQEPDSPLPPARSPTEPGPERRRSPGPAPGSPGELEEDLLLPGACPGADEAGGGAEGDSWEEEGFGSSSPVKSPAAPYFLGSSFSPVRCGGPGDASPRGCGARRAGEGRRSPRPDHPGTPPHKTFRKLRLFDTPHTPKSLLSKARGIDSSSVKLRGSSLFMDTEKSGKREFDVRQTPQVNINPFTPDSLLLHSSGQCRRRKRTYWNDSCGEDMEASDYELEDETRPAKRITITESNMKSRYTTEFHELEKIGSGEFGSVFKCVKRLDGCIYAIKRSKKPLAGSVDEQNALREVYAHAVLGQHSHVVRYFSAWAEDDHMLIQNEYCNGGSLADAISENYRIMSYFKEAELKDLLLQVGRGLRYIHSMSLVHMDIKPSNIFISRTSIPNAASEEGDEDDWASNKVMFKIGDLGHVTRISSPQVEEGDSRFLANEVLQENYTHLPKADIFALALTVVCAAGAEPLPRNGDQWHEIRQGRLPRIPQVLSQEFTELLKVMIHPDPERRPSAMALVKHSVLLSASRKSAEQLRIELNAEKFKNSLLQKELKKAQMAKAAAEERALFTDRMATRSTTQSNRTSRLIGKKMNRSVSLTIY

For the molecule `C=CCn1c(=O)c2cnc(Nc3ccc(N4CCN(C)CC4)cc3)nc2n1-c1cccc(C(C)(C)O)n1` [AZD1775], the inhibition at 30 min, 1 µM on CYP1A2 is 20.2%; on CYP3A4 it was -14%; at CYP2D6, 3.4%; against CYP2C9, 15.4%; against CYP2C19, 25.4%. Moreover, the inhibition at 30 min, 10 µM against CYP1A2 was 17.5%; against CYP3A4 it was -32.9%; against CYP2D6, 1.5%; against CYP2C9 it was 6.4%; at CYP2B6, 17.4%; on CYP2C19, 71.9%.

As for `C=CCn1c(=O)c2cnc(Nc3ccc(N4CC5CC(C4)N5C)cc3)nc2n1-c1cccc(C(C)(C)O)n1` [Compound 27], the results for the half-life at 1 µM in [1] and in series [2] were 105 min and 33 min, respectively. Also, the IC50 (usually the concentration that gives 50% inhibition) at Wee1 protein lay within 5 to 10 nM.
